The IC50 is the concentration that gives 50% inhibition. As usually defined, the MTD is the largest dose that counted as tolerated.

Molecules are shown by their SMILES. Converted amounts (≈) assume the structure as drawn. Read-outs that look alike come from different tables or passages of the source. A value given as a limit tells only on which side of the number the result lay.

Our source for the IC50, MTD and MIC values is US10202347B2, “Compound, production method therefor, and use of said compound” (MICROBIAL CHEMISTRY RESEARCH FOUNDATION, priority 2013, dated 2019).

The subject of series [1] is human stomach cancer cells MKN-74. Briefly: Cell proliferation test, monoculture test (GFP fluorescence). To be noted: monoculture test, MKN-74 alone, cell proliferation rate, average of duplicate, read-out: Mono IC50. The class given is cell-based. As to the method: (§1) Human stomach cancer cells MKN-74 (Riken Cell Bank) were cultured at 37° C. and 5% CO2 in DMEM supplemented with 10% FBS (product of GIBCO Co.), 100 units/mL penicillin G (product of Invitrogen Co.), and 100 μg/mL streptomycin (product of Invitrogen Co.).
(§2) The above cancer cells were allowed to undergo gene transfer of Green fluorescence protein (GFP) expression vector, pEGFP-C1 (product of BD Biosciences Co.) using the Lipofectamine reagent (product of Invitrogen Co.), to thereby clone cells stably expressing GFP.
Only DMEM containing 1% dialyzed serum, 5 μg/mL insulin, 5 μg/mL transferrine (product of Wako Pure Chemical Industries Co.), and 1.4 μM hydrocortisone (product of Sigma Co.) was placed in a 96-well plate at 0.1 mL/well, and respective evaluation samples (the compounds expressed by Structural Formulas (1) to (13)) were added thereto at respective concentrations, followed by maintaining at 37° C. and 5% CO2 for 2 days.
Next, the above human stomach cancer cells MKN-74 were dispersed in DMEM at 5×10^5 cells/mL, and were placed in the above plate at 10 μL/well, followed by further coculturing at 37° C. and 5% CO2 for 3 days.
(§3) Measurement of cell proliferation rates in the above coculture test and monoculture test was performed in the following manner.
(§4) The medium was removed from the wells of the above plate, and a cytolysis liquid (10 mM Tris-HCl [pH 7.4], 150 mM NaCl, 0.9 mM CaCl2, and 1% Triton X-100) was added thereto at 0.1 mL/well to lyse the cells. The fluorescence intensity of GFP was measured at an excitation wavelength of 485 nm and a fluorescence wavelength of 538 nm, and the cell proliferation rates were calculated from the following formula. Cell proliferation rate (%)=(Fluorescence intensity in the presence of the evaluation sample/Fluorescence intensity in the absence of the evaluation sample)×100

Series [2] has as its system human stomach cancer cells MKN-74 cocultured with normal stromal cells derived from the human stomach, Hs738. Kind of series: Cell proliferation test, coculture test with normal stromal cells Hs738 (GFP fluorescence). The class given is cell-based. Conditions: coculture test, MKN-74 with stromal cells Hs738, cell proliferation rate, average of duplicate, read-out: Cocul IC50. As to the method:
as §1, §2
Normal stromal cells derived from the human stomach, Hs738 ((CRL-7869), ATCC) were cultured at 37° C. and 5% CO2 in DMEM supplemented with 10% FBS, 100 units/mL penicillin G (product of Invitrogen Co.), 100 μg/mL streptomycin (product of Invitrogen Co.), 5 μg/mL insulin, 5 μg/mL transferrin (product of Wako Pure Chemical Industries Co.), 1.4 μM hydrocortisone (product of Sigma Co.), and […] basic-FGF (product of Pepro Tech Co.).
The above normal stromal cells derived from the human stomach, Hs738 were dispersed at 5×10^4 cells/mL in DMEM containing 1% dialyzed serum, 5 μg/mL insulin, 5 μg/mL transferrine (product of Wako Pure Chemical Industries Co.), and 1.4 μM hydrocortisone (product of Sigma Co.), and were placed in a 96-well plate at 0.1 mL/well. Respective evaluation samples (the compounds expressed by Structural Formulas (1) to (13)) were added thereto at respective concentrations, followed by culturing at 37° C. and 5% CO2 for 2 days.
Next, the above human stomach cancer cells MKN-74 were dispersed in DMEM at 5×10^5 cells/mL, and were placed at 10 μL/well in the plate in which the above normal stromal cells derived from the human stomach, Hs738 had been cultured, followed by further coculturing at 37° C. and 5% CO2 for 3 days.
as §3, §4

Series [3] in a line: Acute toxicity test (maximum tolerated dose). To be noted: female, ICR, mouse, in vivo, iv. An excerpt: ICR mice (female, 4 weeks old, product of Charles River Co.) were bred under the SPF conditions.
One half of the administration dose at which the mice were recognized to be dead or have serious toxicity for the observation period of 2 weeks was defined as the maximum tolerated dose (MTD) in the present experiment.

In series [4] the test system is Helicobacter pylori JCM12093 strain. Kind of series: Measurement of MIC for Helicobacter pylori JCM12093. Conditions: Helicobacter pylori, JCM12093; HP medium, 144 hours, 37° C., microaerobic; read-out: MIC Helicobacter pylori JCM 12093. The series is classed as cell-based. As to the method:
(§5) Each of the above compounds was measured for minimum inhibitory concentration (MIC) for Helicobacter pylori.
(§6) Helicobacter pylori JCM12093 strain and H. pylori JCM12095 strain each were statically cultured in a HP medium (brain heart infusion broth (product of Becton, Dickinson Co.) supplemented with 10% fetal bovine serum (product of Life Technologies Co.)) for 144 hours at 37° C. under microaerobic culture conditions (microaerobic conditions (N2:O2:CO2=85:5:10)).
(§7) After completion of the culturing, the culture was suspended with the HP medium and diluted so that Helicobacter pylori was 2×10^6 CFU/mL to 9×10^6 CFU/mL.
(§8) Each of the test samples (each of the above compounds, clarithromycin, and ampicillin) was prepared with the HP medium to have a concentration of 256 mg/L. From this concentration, the test sample was 2-fold diluted serially in 15 steps to 0.0078 mg/L.
(§9) The above-diluted culture was added at 50 μL/well to 50 μL/well of the HP medium containing each of the test samples at the above concentrations, and was statically cultured for 144 hours at 37° C. under microaerobic culture conditions (microaerobic conditions (N2:O2:CO2=85:5:10)). After completion of the culturing, the presence or absence of proliferation of each bacterium was visually determined based on turbidity, and the MIC for each bacterial strain was obtained.

Series [5] concerns H. pylori JCM12095 strain. Briefly: Measurement of MIC for H. pylori JCM12095. The class given is cell-based. To be noted: Helicobacter pylori, JCM12095; HP medium, 144 hours, 37° C., microaerobic; read-out: MIC H. pylori JCM 12095. As to the method: as §5, §6, §7, §8, §9
Series [6] concerns Staphylococcus aureus FDA209P strain. Kind of series: Measurement of MIC for Staphylococcus aureus. The series is classed as cell-based. To be noted: nutrient broth medium, 37° C. overnight, read-out: MIC Staphylococcus aureus FDA209P. How it is done: (§10) Each of the above compounds was measured for minimum inhibitory concentration (MIC) for Staphylococcus aureus and Escherichia coli.
(§11) Staphylococcus aureus FDA209P strain and Escherichia coli K-12 strain each were cultured under shaking in a nutrient broth medium (polypeptone (product of NIHON PHARMACEUTICAL Co.) 1%, fish extract for bacteria (product of KYOKUTO PHARMACEUTICAL INDUSTRIAL Co.) 1%, and sodium chloride 0.2%) at 37° C. overnight.
(§12) After completion of the culturing, the culture was diluted with the nutrient broth medium so that the bacteria were 2×10^6 CFU/mL to 9×10^6 CFU/mL.
(§13) Each of the test samples (each of the above compounds, clarithromycin, and ampicillin) was prepared with the nutrient broth medium to have a concentration of 256 mg/L. From this concentration, the test sample was 2-fold diluted serially in 11 steps to 0.125 mg/L.
(§14) The above-diluted culture was added at 50 μL/well to 50 μL/well of the nutrient broth medium containing each of the test samples at the above concentrations, and was statically cultured at 37° C. overnight. After completion of the culturing, the presence or absence of proliferation of each bacterium was visually determined based on turbidity, and the MIC for each bacterial strain was obtained.

The test system of series [7] is Enterococcus faecalis JCM5803 strain. Kind of series: Measurement of MIC for Enterococcus faecalis. Conditions: JCM5803, heart infusion broth medium, 37° C., 18 hours, read-out: MIC Enterococcus faecalis JCM5803. The class given is cell-based. As to the method: Each of the above compounds was measured for minimum inhibitory concentration (MIC) for Enterococcus faecalis.
Enterococcus faecalis JCM5803 strain was cultured under shaking in a heart infusion broth medium (product of Becton, Dickinson Co.) at 37° C. overnight.
After completion of the culturing, the culture was diluted with the heart infusion broth medium so that the bacteria were 2×10^4 CFU/mL to 9×10^4 CFU/mL.
Each of the test samples (each of the above compounds, clarithromycin, and ampicillin) was prepared with the heart infusion broth medium to have a concentration of 256 mg/L. From this concentration, the test sample was 2-fold diluted serially in 11 steps to 0.125 mg/L.
The above-diluted culture was added at 50 μL/well to 50 μL/well of the heart infusion broth medium containing each of the test samples at the above concentrations, and was statically cultured at 37° C. for 18 hours.
(§15) After completion of the culturing, the presence or absence of proliferation of each bacterium was visually determined based on turbidity, and the MIC for each bacterial strain was obtained.

The subject of series [8] is Escherichia coli K-12 strain. Briefly: Measurement of MIC for Escherichia coli. The class given is cell-based. To be noted: K12STRAIN, nutrient broth medium, 37° C. overnight, read-out: MIC Escherichia coli K-12. How it is done:
as §10, §11, §12, §13, §14

For series [9], the system named is Haemophilus influenza T-196 strain. Briefly: Measurement of MIC for Haemophilus influenza T-196. The class given is cell-based. Conditions: HI medium, 18 hours, 37° C., 5% carbon dioxide; read-out: MIC Haemophilus influenzae T-196. As to the method: (§16) Each of the above compounds was measured for minimum inhibitory concentration (MIC) for Haemophilus influenza.
(§17) Haemophilus influenza T-196 strain and H. influenza ARD476 strain each were statically cultured in a HI medium (Muller Hinton medium (product of Becton, Dickinson Co.) supplemented with 5% Fildes enrichment (product of Becton, Dickinson Co.)) at 37° C. overnight under aerobic conditions containing 5% carbon dioxide gas.
(§18) After completion of the culturing, the culture was suspended with the HI medium and diluted so that each Haemophilus influenza strain was 2×10^6 CFU/mL to 9×10^6 CFU/mL.
(§19) Each of the test samples (each of the above compounds, clarithromycin, and ampicillin) was prepared with the HI medium to have a concentration of 256 mg/L. From this concentration, the test sample was 2-fold diluted serially in 11 steps to 0.125 mg/L.
(§20) The above-diluted culture was added at 50 μL/well to 50 μL/well of the HI medium containing each of the test samples at the above concentrations, and was statically cultured for 18 hours at 37° C. under aerobic conditions containing 5% carbon dioxide gas.
as §15

The test system of series [10] is H. influenza ARD476 strain. Kind of series: Measurement of MIC for H. influenza ARD476. The class given is cell-based. To be noted: Haemophilus influenzae, ARD476STRAIN; HI medium, 18 hours, 37° C., 5% carbon dioxide; read-out: MIC H. influenzae ARD476. As to the method: as §16, §17, §18, §19, §20, §15

In the case of `CCCCCCCCc1c(C)c(=O)c2ccccc2n1CC(=O)SC` [Structural Formula (9)], the IC50 was determined as 5.84 µg/mL in series [1] and 1.4 µg/mL in [2]. Moreover, in series [3] (MTD), the MTD at 2 weeks is not below 50 mg/kg.
For `CC1(C)S[C@@H]2[C@H](NC(=O)[C@H](N)c3ccccc3)C(=O)N2[C@H]1C(=O)O` [ABPC, ampicillin, reference compound], the MIC in [4] was 0.25 µg/mL (≈ 0.715 µM); in series [5], 0.13 µg/mL (≈ 0.372 µM); in series [6] it was less than 0.125 µg/mL; in [7], 0.5 µg/mL (≈ 1.43 µM); in series [8], 4 µg/mL (≈ 11.4 µM); in series [9] it was 0.5 µg/mL (≈ 1.43 µM). Also, the MIC in [10] turned out to be 64 µg/mL (≈ 183 µM).
Take `CCCCCCCCc1nc2ccccc2c(OCC(=O)OC)c1C` [Structural Formula (1)]: the IC50 in [1] is 28.1 µg/mL; in [2], 0.35 µg/mL. The compound also yielded an MTD at 2 weeks in series [3] (MTD) not below 50 mg/kg.
On to `CCCCCCCCc1c(C)c(=O)c2ccccc2n1CNC(=O)SC` [Structural Formula (10)], for which the IC50 was 7.57 µg/mL in series [1] and 0.27 µg/mL in series [2]. For the same compound, in series [3] (intravenous administration, ICR mice, observed for 2 weeks, one half of the dose with death or serious toxicity, read-out: MTD), the maximal tolerated dose (MTD) at 2 weeks was not below 50 mg/kg.
In the case of `CC[C@H]1OC(=O)[C@H](C)[C@@H](O[C@H]2C[C@@](C)(OC)[C@@H](O)[C@H](C)O2)[C@H](C)[C@@H](O[C@@H]2O[C@H](C)C[C@H](N(C)C)[C@H]2O)[C@](C)(OC)C[C@@H](C)C(=O)[C@H](C)[C@@H](O)[C@]1(C)O` [Clarithromycin, clarithromycin, reference compound], the MIC in [4] was 0.008 µg/mL (≈ 0.0107 µM); in [5], 0.008 µg/mL (≈ 0.0107 µM); in [6], less than 0.125 µg/mL; in [7] it was 0.5 µg/mL (≈ 0.668 µM); in series [8], 16 µg/mL (≈ 21.4 µM); in series [9], 8 µg/mL (≈ 10.7 µM). Also, the MIC in series [10] is 4 µg/mL (≈ 5.35 µM).
As to `CCCCCCCCc1c(C)c(=O)c2ccccc2n1C#N` [Structural Formula (7)], the IC50 was more than 100 µg/mL in series [1] and 0.007 µg/mL in [2]. In addition, in series [3] (MTD), the MTD at 2 weeks came out at 6.25 mg/kg.
